{"source": "PubChem BioAssay AID2060504", "about": "(Molecular Pharmacology Branch, DTP, NCI, 2025)", "system": "636577-100-R-J1-PDC complex spheroid viability", "test": "Anticancer human tumor 636577-100-R-J1-PDC patient-derived endometrial adenocarcinoma cell line growth inhibition [GQUAD]", "conditions": "for viability, T/C: stronger effect = lower value", "text": "DNA G-quadruplex Stabilizer Agents in Combinations in Complex Spheroids\nA high-throughput screen of multi-cell type tumor spheroids was designed to identify active combinations of DNA G-quadruplex stabilizer agents and targeted small molecules. Complex spheroids include a stromal component modeled by human endothelial cells (HUVEC) and fibroblasts modeled by human mesenchymal stem cells (MSCs). The concentration ranges selected for each drug and investigational agent were based upon clinically achievable concentrations if the clinical Cmax of the agent was known.\nCompounds. The drugs and investigational agents: pidnarulex (CX-5461; NSC782164), APTO-253 (NSC789042), BRACO-19 (NSC847499), peposertib (NSC802822), ceralasertib (NSC780249), elimusertib (NSC800525), camonsertib (NSC841442), AZD-1390 (NSC803789), olaparib (NSC753686), talazoparib (NSC767125), ART-558 (NSC835418), sotorasib (NSC818433), MRTX-1133 (NSC836407), SN-38 (NSC673596), topotecan (NSC609699), etoposide (NSC141540), doxorubicin (NSC123127), gemcitabine (NSC613327), 5-fluorouracil (NSC19893), paclitaxel (NSC125973), vemurafenib (NSC761431), panobinostat (NSC761190), R-306465 (JNJ-16241199; NSC773264), adavosertib (NSC754352), TP-3654 (NSC805149), carboplatin (NSC241240), KSQ-4279 (NSC840948), and staurosporine (NSC755774) were obtained from the National Cancer Institute (NCI) Developmental Therapeutics Program Chemical Repository (34). The FDA-approved anticancer drug set is available from the NCI Developmental Therapeutics Program. […] The stock solutions were prepared in dimethyl sulfoxide (DMSO, Sigma-Aldrich, St. Louis, MO, cat. D2650) at 800-fold the tested concentration and stored at -70 degrees C prior to their use. All drugs and investigational agents were tested over a range starting from a high concentration at or near the clinical Cmax and decreasing in half-log increments. If the clinical Cmax for an agent had not been determined, the highest concentration tested was 10 microM.\n2.3 Cell Culture. All cells were maintained in an incubator at 37 degrees C and 5% CO2 with 95% humidity. The PDC lines were cultured according to standard operating procedures established by the NCI PDMR. All PDCs were thawed and cultured in Matrigel-coated flasks prepared with a working solution of 1X Ham's F-12 nutrient mix, without supplementation (Invitrogen, cat. 11765054), 100 U/mL penicillin-streptomycin (Invitrogen, cat. 15140122), and 2.5% Matrigel (Corning Inc., cat. 354248) for the first three passages. The 857933-349-R-J2-PDC line was cultured in 6C/Colon 1B media, which includes advanced DMEM/F-12 (Thermo Fisher Scientific, cat. 12634028), 10 mM HEPES (Thermo Fisher Scientific, cat. 15630080), 1X GlutaMAX supplement (Thermo Fisher Scientific, cat. 35050061), 0.1 mg/mL primocin (InvivoGen, cat. ant-pm-2), 10% defined fetal bovine serum, heat inactivated (HyClone Laboratories Inc., cat. SH30070.03HI), 50% L-WRN conditioned media (ATCC, cat. CRL-3276), 1.25 mM N-Acetyl-L-cysteine (Sigma-Aldrich, cat. A9165), 10 mM nicotinamide (Sigma-Aldrich, cat. N0636), 1X B-27 supplement (Thermo Fisher Scientific, cat. 17504044), 1X N-2 supplement (Thermo Fisher Scientific, cat. 17502048), 10 microM Y-27632 dihydrochloride (Tocris Bioscience, cat. 1254), and 50 ng/mL human EGF recombinant protein (Thermo Fisher Scientific, cat. PHG0311). The 485176-168-R4-J1-PDC line was cultured in Panc media, which includes all 6C/Colon 1B media components plus 100 ng/mL human FGF-10 (Thermo Fisher Scientific, cat. 100-26), 500 nM SB-431542 (Selleckchem, cat. S1067), and gastrin (Tocris, cat. 3006).\n[…]", "note": "pIC50: −log10 of the molar value. Values joined by “and” are separate entries in the source; they are usually repeats but may differ in a detail not shown here. Equal values may be shown once.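 Note: viability read after seven days of drug exposure.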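 Throughout, for viability, T/C: luminescence signal used as a proxy for viable cells; 100% = DMSO vehicle control wells.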", "data": [{"smiles": "O=c1[nH]cc(F)c(=O)[nH]1", "values": [{"measurement": "viability, T/C", "setting": "compound 0.0316 µM", "result": "102% and 99.7%"}, {"measurement": "viability, T/C", "setting": "compound 0.1 µM", "result": "85% and 68.9%"}, {"measurement": "viability, T/C", "setting": "compound 0.316 µM", "result": "101% and 89.5%"}, {"measurement": "viability, T/C", "setting": "compound 1 µM", "result": "76.2% and 91.4%"}, {"measurement": "viability, T/C", "setting": "compound 3.16 µM", "result": "44.2% and 71%"}, {"measurement": "viability, T/C", "setting": "compound 10 µM", "result": "24.7% and 28.6%"}, {"measurement": "pIC50", "setting": "curve of compound", "result": "5.60 and 5.25"}]}, {"smiles": "Cn1ncnc1[C@H]1c2n[nH]c(=O)c3cc(F)cc(c23)N[C@@H]1c1ccc(F)cc1", "note": "+ Cc1cnc(CNC(=O)c2c(=O)c3ccc(N4CCCN(C)CC4)nc3n3c2sc2ccccc23)cn1", "values": [{"measurement": "pIC50", "setting": "curve of first compound, second compound 0.0316 µM", "result": "> 9.00"}, {"measurement": "pIC50", "setting": "curve of first compound, second compound 0.1 µM", "result": "> 9.00"}, {"measurement": "pIC50", "setting": "curve of first compound, second compound 0.316 µM", "result": "> 9.00"}, {"measurement": "pIC50", "setting": "curve of first compound, second compound 1 µM", "result": "> 9.00"}, {"measurement": "pIC50", "setting": "curve of first compound, second compound 3.16 µM", "result": "> 9.00"}, {"measurement": "pIC50", "setting": "curve of first compound, second compound 10 µM", "result": "> 9.00"}, {"measurement": "viability, T/C", "setting": "second compound 0.0316 µM, first compound 0.000999 µM", "result": 47.9, "unit": "%"}, {"measurement": "viability, T/C", "setting": "second compound 0.0316 µM, first compound 0.00316 µM", "result": 25.6, "unit": "%"}, {"measurement": "viability, T/C", "setting": "second compound 0.0316 µM, first compound 0.00999 µM", "result": 39.7, "unit": "%"}, {"measurement": "viability, T/C", "setting": "second compound 0.0316 µM, first compound 0.0316 µM", "result": 24, "unit": "%"}, {"measurement": "viability, T/C", "setting": "second compound 0.0316 µM, first compound 0.0999 µM", "result": 24.7, "unit": "%"}, {"measurement": "viability, T/C", "setting": "second compound 0.0316 µM, first compound 0.316 µM", "result": 24.9, "unit": "%"}, {"measurement": "viability, T/C", "setting": "second compound 0.1 µM, first compound 0.000999 µM", "result": 26.9, "unit": "%"}, {"measurement": "viability, T/C", "setting": "second compound 0.1 µM, first compound 0.00316 µM", "result": 26.9, "unit": "%"}, {"measurement": "viability, T/C", "setting": "second compound 0.1 µM, first compound 0.00999 µM", "result": 26.6, "unit": "%"}, {"measurement": "viability, T/C", "setting": "second compound 0.1 µM, first compound 0.0316 µM", "result": 20.6, "unit": "%"}, {"measurement": "viability, T/C", "setting": "second compound 0.1 µM, first compound 0.0999 µM", "result": 24.1, "unit": "%"}, {"measurement": "viability, T/C", "setting": "second compound 0.1 µM, first compound 0.316 µM", "result": 19.9, "unit": "%"}, {"measurement": "viability, T/C", "setting": "second compound 0.316 µM, first compound 0.000999 µM", "result": 21, "unit": "%"}, {"measurement": "viability, T/C", "setting": "second compound 0.316 µM, first compound 0.00316 µM", "result": 23.2, "unit": "%"}, {"measurement": "viability, T/C", "setting": "second compound 0.316 µM, first compound 0.00999 µM", "result": 21.1, "unit": "%"}, {"measurement": "viability, T/C", "setting": "second compound 0.316 µM, first compound 0.0316 µM", "result": 22.9, "unit": "%"}, {"measurement": "viability, T/C", "setting": "second compound 0.316 µM, first compound 0.0999 µM", "result": 21.8, "unit": "%"}, {"measurement": "viability, T/C", "setting": "second compound 0.316 µM, first compound 0.316 µM", "result": 19.2, "unit": "%"}, {"measurement": "viability, T/C", "setting": "second compound 1 µM, first compound 0.000999 µM", "result": 20.1, "unit": "%"}, {"measurement": "viability, T/C", "setting": "second compound 1 µM, first compound 0.00316 µM", "result": 19, "unit": "%"}, {"measurement": "viability, T/C", "setting": "second compound 1 µM, first compound 0.00999 µM", "result": 19.8, "unit": "%"}, {"measurement": "viability, T/C", "setting": "second compound 1 µM, first compound 0.0316 µM", "result": 21, "unit": "%"}, {"measurement": "viability, T/C", "setting": "second compound 1 µM, first compound 0.0999 µM", "result": 19.4, "unit": "%"}, {"measurement": "viability, T/C", "setting": "second compound 1 µM, first compound 0.316 µM", "result": 20.4, "unit": "%"}, {"measurement": "viability, T/C", "setting": "second compound 3.16 µM, first compound 0.000999 µM", "result": 19, "unit": "%"}, {"measurement": "viability, T/C", "setting": "second compound 3.16 µM, first compound 0.00316 µM", "result": 18.6, "unit": "%"}, {"measurement": "viability, T/C", "setting": "second compound 3.16 µM, first compound 0.00999 µM", "result": 21.6, "unit": "%"}, {"measurement": "viability, T/C", "setting": "second compound 3.16 µM, first compound 0.0316 µM", "result": 19.7, "unit": "%"}, {"measurement": "viability, T/C", "setting": "second compound 3.16 µM, first compound 0.0999 µM", "result": 21.7, "unit": "%"}, {"measurement": "viability, T/C", "setting": "second compound 3.16 µM, first compound 0.316 µM", "result": 19.2, "unit": "%"}, {"measurement": "viability, T/C", "setting": "second compound 10 µM, first compound 0.000999 µM", "result": 15.2, "unit": "%"}, {"measurement": "viability, T/C", "setting": "second compound 10 µM, first compound 0.00316 µM", "result": 18.5, "unit": "%"}, {"measurement": "viability, T/C", "setting": "second compound 10 µM, first compound 0.00999 µM", "result": 21.9, "unit": "%"}, {"measurement": "viability, T/C", "setting": "second compound 10 µM, first compound 0.0316 µM", "result": 19.4, "unit": "%"}, {"measurement": "viability, T/C", "setting": "second compound 10 µM, first compound 0.0999 µM", "result": 21.9, "unit": "%"}, {"measurement": "viability, T/C", "setting": "second compound 10 µM, first compound 0.316 µM", "result": 19.2, "unit": "%"}]}]}
